The record followed here is ChEMBL document CHEMBL4038279, “Design and characterization of opioid ligands based on cycle-in-macrocycle scaffold” (Bioorg Med Chem, 2017).

The target in one experiment is Mu-type opioid receptor (Homo sapiens, UniProt P35372). The experiment in a line: Displacement of [3H]DAMGO from recombinant human mu opioid receptor expressed in CHO cell membranes after 120 mins by liquid scintillation counter analysis.
Experiment [1] deals with Delta-type opioid receptor (Homo sapiens, UniProt P41143). As to the kind of experiment: Displacement of [3H]deltorphin-2 from recombinant human delta opioid receptor expressed in CHO cell membranes after 120 mins by liquid scintillation counter analysis. On the technique in general: Loss of bound radioactivity is the signal in a displacement assay; it reports binding, not function.
Sequence of Delta-type opioid receptor (P41143 whole entry): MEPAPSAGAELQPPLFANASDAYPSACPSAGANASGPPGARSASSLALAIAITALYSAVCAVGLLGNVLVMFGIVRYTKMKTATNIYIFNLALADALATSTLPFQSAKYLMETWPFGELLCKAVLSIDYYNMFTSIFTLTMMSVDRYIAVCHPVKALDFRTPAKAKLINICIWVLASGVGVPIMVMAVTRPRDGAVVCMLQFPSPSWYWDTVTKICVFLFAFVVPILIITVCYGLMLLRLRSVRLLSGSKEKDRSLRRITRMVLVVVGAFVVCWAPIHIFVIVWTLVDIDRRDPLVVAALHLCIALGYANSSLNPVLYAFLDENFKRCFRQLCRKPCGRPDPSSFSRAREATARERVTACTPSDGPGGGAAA

The target in experiment [2] is Kappa-type opioid receptor (Homo sapiens, UniProt P41145). As to the kind of experiment: Displacement of [3H]U-69593 from recombinant human kappa opioid receptor expressed in CHO cell membranes after 120 mins by liquid scintillation counter analysis.
Sequence of Kappa-type opioid receptor (P41145 whole entry): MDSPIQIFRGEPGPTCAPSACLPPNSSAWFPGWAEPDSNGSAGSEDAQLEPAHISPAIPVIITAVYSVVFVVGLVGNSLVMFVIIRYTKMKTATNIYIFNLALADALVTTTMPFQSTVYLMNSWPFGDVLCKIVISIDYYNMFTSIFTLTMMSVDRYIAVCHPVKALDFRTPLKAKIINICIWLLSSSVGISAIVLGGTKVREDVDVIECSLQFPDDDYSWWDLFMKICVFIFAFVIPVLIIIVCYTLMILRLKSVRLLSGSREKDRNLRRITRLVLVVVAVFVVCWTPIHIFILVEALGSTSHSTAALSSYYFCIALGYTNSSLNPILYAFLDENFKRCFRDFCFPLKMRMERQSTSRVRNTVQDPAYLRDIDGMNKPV

Molecules are shown by their SMILES. Where a SMILES comes first, the peptide text is derived from it. Bridges are numbered along the chain shown (N, C = ends). [ ]: non-standard residue; d: D form.

Sequence of Mu-type opioid receptor (P35372 whole entry): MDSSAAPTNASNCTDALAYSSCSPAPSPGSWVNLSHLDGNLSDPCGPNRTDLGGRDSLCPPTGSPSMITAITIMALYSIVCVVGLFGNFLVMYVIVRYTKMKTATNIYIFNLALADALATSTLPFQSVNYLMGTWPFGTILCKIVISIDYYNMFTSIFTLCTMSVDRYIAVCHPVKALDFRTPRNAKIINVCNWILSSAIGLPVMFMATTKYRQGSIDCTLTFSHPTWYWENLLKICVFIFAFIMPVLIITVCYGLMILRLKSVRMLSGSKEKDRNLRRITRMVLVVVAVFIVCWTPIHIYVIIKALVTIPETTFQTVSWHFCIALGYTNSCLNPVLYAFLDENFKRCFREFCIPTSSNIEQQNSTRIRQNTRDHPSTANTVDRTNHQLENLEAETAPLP

For `NC(=O)[C@@H]1CC(=O)NCCCC[C@@H](NC(=O)[C@@H](N)Cc2ccc(O)cc2)C(=O)N[C@@H](Cc2ccccc2)C(=O)N2CCCC[C@H]2C(=O)N1`, the results for the inhibitory constant (Ki) (on Mu-type opioid receptor; in experiment [1]; in experiment [2]) were 0.00316 µM, 0.0496 µM and 6.72 µM, respectively.

As to `NC(=O)[C@@H]1CC(=O)NCCCC[C@@H](NC(=O)[C@@H](N)Cc2ccc(O)cc2)C(=O)N[C@@H](Cc2ccccc2)C(=O)N2CCC[C@H]2C(=O)N1`, the figures for the inhibition constant (Ki) (at Mu-type opioid receptor; in experiment [1]; in experiment [2]) were 0.00046 µM, 0.0855 µM and 0.884 µM, respectively.

On to `NC(=O)[C@@H]1CC(=O)NCCCC[C@@H](NC(=O)[C@@H](N)Cc2ccc(O)cc2)C(=O)N[C@@H](Cc2ccccc2)C(=O)N2CCC(CC2)C(=O)N1`, for which the inhibitory constant (Ki) (commonly the equilibrium dissociation constant of an inhibitor or competing ligand from its target) on Mu-type opioid receptor turned out to be 0.00115 µM; in experiment [1], 0.0767 µM; in experiment [2], 5.46 µM.

`NC(=O)[C@@H]1CC(=O)NCCCC[C@@H](NC(=O)[C@@H](N)Cc2ccc(O)cc2)C(=O)N[C@@H](Cc2ccccc2)C(=O)N2CCC[C@H](C2)C(=O)N1`: the Ki was determined as 0.0009 µM on Mu-type opioid receptor, 0.067 µM in experiment [1] and 4.62 µM in experiment [2].

Regarding `NC(=O)[C@@H]1CC(=O)NCCCC[C@@H](NC(=O)[C@@H](N)Cc2ccc(O)cc2)C(=O)N[C@@H](Cc2ccccc2)C(=O)N[C@@H](Cc2ccccc2)C(=O)N1` (H-Y[dK]FFD-NH2; lactam 2-5), the results for the inhibition constant Ki (at Mu-type opioid receptor; in experiment [1]; in experiment [2]) were 0.00056 µM, 0.279 µM and 0.00236 µM, respectively.
